Measured values published in patent US11427548B2 (Arvinas Operations, Inc., priority 2015, dated 2022).

Target: T1, Androgen Receptor (Homo sapiens, UniProt P10275)
T1 construct: endogenous in cells; host or cells: VCaP cells
T1 sequence (P10275 1-920): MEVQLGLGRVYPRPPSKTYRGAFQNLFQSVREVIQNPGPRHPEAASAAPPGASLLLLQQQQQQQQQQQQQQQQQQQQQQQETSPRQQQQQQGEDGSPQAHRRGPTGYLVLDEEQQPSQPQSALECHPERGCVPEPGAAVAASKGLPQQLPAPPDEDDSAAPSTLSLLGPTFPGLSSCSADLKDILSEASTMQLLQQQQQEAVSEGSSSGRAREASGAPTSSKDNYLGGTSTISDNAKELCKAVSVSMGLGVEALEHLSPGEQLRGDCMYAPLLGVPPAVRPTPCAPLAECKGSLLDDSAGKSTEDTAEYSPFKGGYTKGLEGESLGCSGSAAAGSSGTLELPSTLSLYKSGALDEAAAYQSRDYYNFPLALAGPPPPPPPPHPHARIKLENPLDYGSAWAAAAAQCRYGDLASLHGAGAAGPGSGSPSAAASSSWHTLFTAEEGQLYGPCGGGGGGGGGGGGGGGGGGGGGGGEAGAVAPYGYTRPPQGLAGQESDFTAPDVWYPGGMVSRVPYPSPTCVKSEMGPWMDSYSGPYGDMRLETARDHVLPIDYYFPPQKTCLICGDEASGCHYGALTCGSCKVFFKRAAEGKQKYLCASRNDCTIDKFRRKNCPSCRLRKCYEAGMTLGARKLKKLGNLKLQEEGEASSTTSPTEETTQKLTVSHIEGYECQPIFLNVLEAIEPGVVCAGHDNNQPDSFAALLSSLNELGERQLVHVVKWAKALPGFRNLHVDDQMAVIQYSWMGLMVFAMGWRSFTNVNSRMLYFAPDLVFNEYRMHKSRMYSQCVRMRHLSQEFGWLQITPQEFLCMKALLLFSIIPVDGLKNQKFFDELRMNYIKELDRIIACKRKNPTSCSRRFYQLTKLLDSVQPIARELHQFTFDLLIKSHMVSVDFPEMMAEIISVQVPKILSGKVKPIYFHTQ
Test: Androgen Receptor ELISA assay (PathScan AR ELISA) in VCaP cells: AR degradation, Dmax and DC50
Type: cell-based
Settings: VCaP cells, Table 36; for DC50: read-out: VCaP DC50; for Dmax: VCaP, read-out: VCaP Dmax (%)
How it was run: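 VCaP cells, 30,000/well, grown ≥3 days in phenol red-free RPMI with 5% charcoal-stripped FBS; compound added in 0.1% DMSO with 0.1 nM R1881, 7 half-log doses, 24 h. Lysate AR quantified by PathScan sandwich ELISA, HRP/TMB read at 450 nm, giving DC50 and Dmax.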

DC50 [nM] | Dmax [%] | Structure (SMILES)
< 50 | > 71 | Cc1ncsc1-c1ccc([C@H](C)NC(=O)C2C[C@@H](O)CN2C(=O)[C@@H](NC(=O)COCCN2CCN(c3ccc(C(=O)N[C@H]4C(C)(C)[C@H](Oc5ccc(C#N)c(Cl)c5)C4(C)C)cn3)C[C@H]2CO)C(C)(C)C)cc1 (stereo partly drawn) [Example 788, N-((1r,3S)-3-(3-chloro-4-cyanophenoxy)-2,2,4,4-tetramethylcyclobutyl)-6-((3S)-4-(2-(2-(((2S)-1-((4R)-4-hydroxy-2-(((S)-1-(4-(4-methylthiazol-5-yl)phenyl)ethyl)carbamoyl)pyrrolidin-1-yl)-3,3-dimethyl-1-oxobutan-2-yl)amino)-2-oxoethoxy)ethyl)-3-(hydroxymethyl)piperazin-1-yl)nicotinamide]
< 50 | > 71 | Cc1ncsc1-c1ccc([C@H](C)NC(=O)C2C[C@@H](O)CN2C(=O)C(NC(=O)CN2CCN(CCN3CCN(c4ccc(C(=O)N[C@H]5C(C)(C)[C@H](Oc6ccc(C#N)c(Cl)c6)C5(C)C)cn4)CC3)CC2)C(C)(C)C)cc1 (stereo partly drawn) [Example 789, N-((1r,3r)-3-(3-chloro-4-cyanophenoxy)-2,2,4,4-tetramethylcyclobutyl)-6-(4-(2-(4-(2-(((S)-1-((2S,4R)-4-hydroxy-2-(((S)-1-(4-(4-methylthiazol-5-yl)phenyl)ethyl)carbamoyl)pyrrolidin-1-yl)-3,3-dimethyl-1-oxobutan-2-yl)amino)-2-oxoethyl)piperazin-1-yl)ethyl)piperazin-1-yl)nicotinamide]
> 501 | 26 to 50 | Cc1ncsc1-c1ccc([C@H](C)NC(=O)[C@@H]2C[C@@H](O)CN2C(=O)[C@@H](NC(=O)COCCN2CCN(Cc3cc(C(=O)N[C@@H](C)Cn4ccc(-c5ccc(C#N)c(Cl)c5)n4)n[nH]3)CC2)C(C)(C)C)cc1 [Example 790, N-((S)-1-(3-(3-chloro-4-cyanophenyl)-1H-pyrazol-1-yl)propan-2-yl)-5-((4-(2-(2-(((S)-1-((2S,4R)-4-hydroxy-2-(((S)-1-(4-(4-methylthiazol-5-yl)phenyl)ethyl)carbamoyl)pyrrolidin-1-yl)-3,3-dimethyl-1-oxobutan-2-yl)amino)-2-oxoethoxy)ethyl)piperazin-1-yl)methyl)-1H-pyrazole-3-carboxamide]
> 501 | < 25 | Cc1ncsc1-c1ccc([C@H](C)NC(=O)[C@@H]2C[C@@H](O)CN2C(=O)C(NC(=O)CO[C@H]2CCCC[C@@H]2N2CCN(CCOc3ccc(C(=O)N[C@H]4C(C)(C)[C@H](Oc5ccc(C#N)c(Cl)c5)C4(C)C)cc3)CC2)C(C)(C)C)cc1 (stereo partly drawn) [Example 791, (2S,4R)-1-((S)-2-(2-(((1S,2S)-2-(4-(2-(4-(((1r,3r)-3-(3-chloro-4-cyanophenoxy)-2,2,4,4-tetramethylcyclobutyl)carbamoyl)phenoxy)ethyl)piperazin-1-yl)cyclohexyl)oxy)acetamido)-3,3-dimethylbutanoyl)-4-hydroxy-N-((S)-1-(4-(4-methylthiazol-5-yl)phenyl)ethyl)pyrrolidine-2-carboxamide]
> 501 | 26 to 50 | Cc1ncsc1-c1ccc([C@H](C)NC(=O)[C@@H]2C[C@@H](O)CN2C(=O)C(NC(=O)CO[C@@H]2CCCC[C@H]2N2CCN(CCOc3ccc(C(=O)N[C@H]4C(C)(C)[C@H](Oc5ccc(C#N)c(Cl)c5)C4(C)C)cc3)CC2)C(C)(C)C)cc1 (stereo partly drawn) [Example 792, (2S,4R)-1-((S)-2-(2-(((1R,2R)-2-(4-(2-(4-(((1r,3r)-3-(3-chloro-4-cyanophenoxy)-2,2,4,4-tetramethylcyclobutyl)carbamoyl)phenoxy)ethyl)piperazin-1-yl)cyclohexyl)oxy)acetamido)-3,3-dimethylbutanoyl)-4-hydroxy-N-((S)-1-(4-(4-methylthiazol-5-yl)phenyl)ethyl)pyrrolidine-2-carboxamide]
< 50 | > 71 | COc1cc(-c2scnc2C)ccc1CNC(=O)C1C[C@@H](O)CN1C(=O)[C@@H](NC(=O)COCCN1CCN(c2ccc(C(=O)N[C@H]3C(C)(C)[C@H](Oc4ccc(C#N)c(Cl)c4)C3(C)C)cn2)CC1)C(C)(C)C (stereo partly drawn) [Example 793, N-((1r,3r)-3-(3-chloro-4-cyanophenoxy)-2,2,4,4-tetramethylcyclobutyl)-6-(4-(2-(2-(((S)-1-((2S,4R)-4-hydroxy-2-((2-methoxy-4-(4-methylthiazol-5-yl)benzyl)carbamoyl)pyrrolidin-1-yl)-3,3-dimethyl-1-oxobutan-2-yl)amino)-2-oxoethoxy)ethyl)piperazin-1-yl)nicotinamide]
< 50 | 51 to 70 | Cc1ncsc1-c1ccc([C@H](C)NC(=O)[C@@H]2C[C@@H](O)CN2C(=O)[C@@H](NC(=O)CN2CC(N3CCN(c4ccc(C(=O)N[C@H]5C(C)(C)[C@H](Oc6ccc(C#N)c(Cl)c6)C5(C)C)cn4)CC3)C2)C(C)(C)C)cc1 [Example 794, N-((1r,3r)-3-(3-chloro-4-cyanophenoxy)-2,2,4,4-tetramethylcyclobutyl)-6-(4-(1-(2-(((S)-1-((2S,4R)-4-hydroxy-2-(((S)-1-(4-(4-methylthiazol-5-yl)phenyl)ethyl)carbamoyl)pyrrolidin-1-yl)-3,3-dimethyl-1-oxobutan-2-yl)amino)-2-oxoethyl)azetidin-3-yl)piperazin-1-yl)nicotinamide]
< 50 | > 71 | Cc1ncsc1-c1ccc([C@H](C)NC(=O)[C@@H]2C[C@@H](O)CN2C(=O)[C@@H](NC(=O)CN2CCN(C3CN(c4ccc(C(=O)N[C@H]5C(C)(C)[C@H](Oc6ccc(C#N)c(Cl)c6)C5(C)C)cn4)C3)CC2)C(C)(C)C)cc1 [Example 795, N-((1r,3r)-3-(3-chloro-4-cyanophenoxy)-2,2,4,4-tetramethylcyclobutyl)-6-(3-(4-(2-(((S)-1-((2S,4R)-4-hydroxy-2-(((S)-1-(4-(4-methylthiazol-5-yl)phenyl)ethyl)carbamoyl)pyrrolidin-1-yl)-3,3-dimethyl-1-oxobutan-2-yl)amino)-2-oxoethyl)piperazin-1-yl)azetidin-1-yl)nicotinamide]
> 501 | 26 to 50 | Cc1ncsc1-c1ccc([C@H](C)NC(=O)[C@@H]2C[C@@H](O)CN2C(=O)[C@H](c2cc(N3CCN(CCCc4ccc(C(=O)N[C@H]5C(C)(C)[C@H](Oc6ccc(C#N)c(Cl)c6)C5(C)C)cc4)CC3)no2)C(C)C)cc1 [Example 796, (2S,4R)-1-((S)-2-(3-(4-(3-(4-(((1r,3r)-3-(3-chloro-4-cyanophenoxy)-2,2,4,4-tetramethylcyclobutyl)carbamoyl)phenyl)propyl)piperazin-1-yl)isoxazol-5-yl)-3-methylbutanoyl)-4-hydroxy-N-((S)-1-(4-(4-methylthiazol-5-yl)phenyl)ethyl)pyrrolidine-2-carboxamide]
< 50 | 51 to 70 | Cc1ncsc1-c1ccc([C@H](C)NC(=O)[C@@H]2C[C@@H](O)CN2C(=O)[C@@H](c2cc(N3CCN(CCCc4ccc(C(=O)N[C@H]5C(C)(C)[C@H](Oc6ccc(C#N)c(Cl)c6)C5(C)C)cc4)CC3)no2)C(C)C)cc1 [Example 797, (2S,4R)-1-((R)-2-(3-(4-(3-(4-(((1r,3r)-3-(3-chloro-4-cyanophenoxy)-2,2,4,4-tetramethylcyclobutyl)carbamoyl)phenyl)propyl)piperazin-1-yl)isoxazol-5-yl)-3-methylbutanoyl)-4-hydroxy-N-((S)-1-(4-(4-methylthiazol-5-yl)phenyl)ethyl)pyrrolidine-2-carboxamide]
> 501 | < 25 | Cc1ncsc1-c1ccc([C@H](C)NC(=O)[C@@H]2C[C@@H](O)CN2C(=O)[C@@H](NC(=O)CCCCN2C[C@H]3C[C@@H]2CN3c2ccc(C(=O)N[C@H]3C[C@H](Oc4ccc(C#N)c(Cl)c4)C3)cn2)C(C)(C)C)cc1 [Example 798, N-((1r,3R)-3-(3-chloro-4-cyanophenoxy)cyclobutyl)-6-((1R,4R)-5-(5-(((S)-1-((2S,4R)-4-hydroxy-2-(((S)-1-(4-(4-methylthiazol-5-yl)phenyl)ethyl)carbamoyl)pyrrolidin-1-yl)-3,3-dimethyl-1-oxobutan-2-yl)amino)-5-oxopentyl)-2,5-diazabicyclo[2.2.1]heptan-2-yl)nicotinamide]
< 50 | 51 to 70 | Cc1ncsc1-c1ccc([C@H](C)NC(=O)C2C[C@@H](O)CN2C(=O)C(NC(=O)CCC(F)(F)CN2CCN(c3ccc(C(=O)N[C@H]4C(C)(C)[C@H](Oc5ccc(C#N)c(Cl)c5)C4(C)C)cn3)CC2)C(C)(C)C)cc1 (stereo partly drawn) [Example 799, N-((1r,3r)-3-(3-chloro-4-cyanophenoxy)-2,2,4,4-tetramethylcyclobutyl)-6-(4-(2,2-difluoro-5-(((S)-1-((2S,4R)-4-hydroxy-2-(((S)-1-(4-(4-methylthiazol-5-yl)phenyl)ethyl)carbamoyl)pyrrolidin-1-yl)-3,3-dimethyl-1-oxobutan-2-yl)amino)-5-oxopentyl)piperazin-1-yl)nicotinamide]
